Measured values taken from patent US10294202B2, “Pyrrolidinones as herbicides” (FMC Corporation, priority 2013, dated 2019).

How the values were obtained:
giant foxtail = assay: Test A pre-/postemergence herbicide test; type: in vivo, Setaria faberii; conditions: for Plant response rating, Foxtail, Giant: 0 to 100 scale
Outline: (§1)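 Greenhouse pot test with pre- and postemergence application of surfactant-containing solvent formulations. Postemergence plants were 2–10 cm, one- to two-leaf stage. Response scored visually after ~10 days, 0 (no effect) to 100 (complete control).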

ragweed = assay: Test A pre-/postemergence herbicide test; type: in vivo, Ambrosia elatior; conditions: for Plant response rating, Ragweed: 0 to 100 scale
Outline: as §1

sedge, umbrella = assay: Test B flooded paddy test; type: in vivo, Cyperus difformis; conditions: Flood, scale of 0 to 100 where 0 is no effect and 100 is complete control
Outline: (§2)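 Scored visually 0–100 (0 no effect, 100 complete control) versus controls after 13 to 15 greenhouse days. Treatment: compound added to paddy water kept 3 cm above soil, on 2-leaf-stage plants.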

blackgrass = assay: Test A postemergence herbicide test; type: in vivo, Alopecurus myosuroides; conditions: for Plant response rating, Blackgrass: 125 g ai/ha, 0 to 100 scale, 0 is no effect, 100 is complete control; for Blackgrass plant response rating (0 to 100 scale, 0 is no effect, 100 is complete control): 500 g ai/ha
Outline: (§3)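 Potted in loam soil/sand blend; postemergence application at 1–2 leaf stage (2–10 cm). Greenhouse ~10 d. Visual injury vs untreated, 0–100 scale; 100 = complete control.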

pigweed = assay: Test A pre-/postemergence herbicide test; type: in vivo, Amaranthus retroflexus; conditions: for Plant response rating, Pigweed: 0 to 100 scale
Outline: as §1

wheat = assay: Test A pre-/postemergence herbicide test; type: in vivo, Triticum aestivum; conditions: Postemergence; for Plant response rating, Wheat: 125 g ai/ha, 0 to 100 scale, 0 is no effect, 100 is complete control; for Wheat plant response rating (0 to 100 scale, 0 is no effect, 100 is complete control): 500 g ai/ha
Outline: as §1

ryegrass, Italian = assay: Test A pre-/postemergence herbicide test; type: in vivo, Lolium multiflorum; conditions: for Plant response rating, Ryegrass, Italian: 0 to 100 scale
Outline: as §1

barnyardgrass [1] = assay: Test B flooded paddy test; type: in vivo, Echinochloa crus-galli; conditions: Flood, scale of 0 to 100 where 0 is no effect and 100 is complete control
Outline: as §2

ducksalad = assay: Test B flooded paddy test; type: in vivo, Heteranthera limosa; conditions: Flood, scale of 0 to 100 where 0 is no effect and 100 is complete control
Outline: as §2

corn = assay: Test A pre-/postemergence herbicide test; type: in vivo, Zea mays; conditions: Postemergence; for Plant response rating, Corn: 125 g ai/ha, 0 to 100 scale, 0 is no effect, 100 is complete control; for Corn plant response rating (0 to 100 scale, 0 is no effect, 100 is complete control): 500 g ai/ha
Outline: as §1

galium = assay: Test A postemergence herbicide test; type: in vivo, Galium aparine; conditions: for Plant response rating, Galium: 125 g ai/ha, 0 to 100 scale, 0 is no effect, 100 is complete control; for Galium plant response rating (0 to 100 scale, 0 is no effect, 100 is complete control): 500 g ai/ha
Outline: as §3

barnyardgrass [2] = assay: Test A pre-/postemergence herbicide test; type: in vivo, Echinochloa crus-galli
Outline: as §1

rice = assay: Test B flooded paddy test; type: in vivo, Oryza sativa; conditions: Flood, scale of 0 to 100 where 0 is no effect and 100 is complete control
Outline: as §2

kochia = assay: Test A pre-/postemergence herbicide test; type: in vivo, Kochia scoparia; conditions: for Plant response rating, Kochia: 0 to 100 scale
Outline: as §1

[3] = 125 g ai/ha, visual rating, 0 no effect, 100 complete control, approximately 10 days, preemergence
[4] = Postemergence, 125 g ai/ha, 0 is no effect, 100 is complete control
[5] = preemergence, 500 g ai/ha, 0 is no effect and 100 is complete control
[6] = 125 g ai/ha, visual rating, 0 to 100 scale, 0 no effect, 100 complete control, approximately 10 days, preemergence
[7] = Postemergence, 125 g ai/ha, 0 to 100 scale, 0 is no effect, 100 is complete control
[8] = preemergence, 500 g ai/ha, 0 to 100 scale (0 no effect, 100 complete control)

CCc1cccc(C2CNC(=O)C2C(=O)Nc2cccc(F)c2F)c1 (racemic) [Compound 170]
Plant response rating, Foxtail, Giant (giant foxtail; [3]): 80 | Plant response rating, Foxtail, Giant (giant foxtail; [4]): 60 | Foxtail, Giant plant response rating (0 to 100 scale, 0 is no effect, 100 is complete control) (giant foxtail; Postemergence, 500 g ai/ha): 90 | Plant response rating, Foxtail, Giant (giant foxtail; preemergence, 500 g ai/ha): 90 | Plant response rating, Ragweed (ragweed; [3]): 0 | Plant response rating, Ragweed (ragweed; [4]): 20 | Ragweed plant response rating (0 to 100 scale, 0 is no effect, 100 is complete control) (ragweed; Postemergence, 500 g ai/ha): 50 | Plant response rating, Ragweed (ragweed; [5]): 60 | Plant response rating, Sedge, Umbrella (sedge, umbrella; 500 g ai/ha): 0 | Plant response rating, Blackgrass (blackgrass): 50 | Blackgrass plant response rating (0 to 100 scale, 0 is no effect, 100 is complete control) (blackgrass): 60 | Plant response rating, Pigweed (pigweed; [3]): 50 | Plant response rating, Pigweed (pigweed; [4]): 20 | Pigweed plant response rating (0 to 100 scale, 0 is no effect, 100 is complete control) (pigweed; Postemergence, 500 g ai/ha): 30 | Plant response rating, Pigweed (pigweed; [5]): 50 | Plant response rating, Wheat (wheat): 0 | Wheat plant response rating (0 to 100 scale, 0 is no effect, 100 is complete control) (wheat): 60 | Plant response rating, Ryegrass, Italian (ryegrass, Italian; [3]): 0 | Plant response rating, Ryegrass, Italian (ryegrass, Italian; [4]): 20 | Ryegrass, Italian plant response rating (0 to 100 scale, 0 is no effect, 100 is complete control) (ryegrass, Italian; Postemergence, 500 g ai/ha): 60 | Plant response rating, Ryegrass, Italian (ryegrass, Italian; [5]): 50 | Plant response rating, Barnyardgrass (barnyardgrass [1]; 500 g ai/ha): 85 | Plant response rating, Ducksalad (ducksalad; 500 g ai/ha): 100 | Plant response rating, Corn (corn): 20 | Corn plant response rating (0 to 100 scale, 0 is no effect, 100 is complete control) (corn): 70 | Plant response rating, Galium (galium): 60 | Galium plant response rating (0 to 100 scale, 0 is no effect, 100 is complete control) (galium): 60 | Plant response rating, Barnyardgrass (barnyardgrass [2]; [6]): 90 | Plant response rating, Barnyardgrass (barnyardgrass [2]; [7]): 90 | Barnyardgrass plant response rating (0 to 100 scale, 0 is no effect, 100 is complete control) (barnyardgrass [2]; Postemergence, 500 g ai/ha): 90 | Plant response rating, Barnyardgrass (barnyardgrass [2]; [8]): 90 | Plant response rating, Rice (rice; 500 g ai/ha): 15 | Plant response rating, Kochia (kochia; [3]): 50 | Plant response rating, Kochia (kochia; [4]): 20 | Kochia plant response rating (0 to 100 scale, 0 is no effect, 100 is complete control) (kochia; Postemergence, 500 g ai/ha): 50 | Plant response rating, Kochia (kochia; [5]): 70

CCc1cccc(C2CNC(=O)C2C(=O)Nc2ccc(F)c(F)c2F)c1 (racemic) [Compound 171]
Plant response rating, Foxtail, Giant (giant foxtail; [3]): 90 | Plant response rating, Foxtail, Giant (giant foxtail; [4]): 60 | Foxtail, Giant plant response rating (0 to 100 scale, 0 is no effect, 100 is complete control) (giant foxtail; Postemergence, 500 g ai/ha): 80 | Plant response rating, Foxtail, Giant (giant foxtail; preemergence, 500 g ai/ha): 90 | Plant response rating, Ragweed (ragweed; [3]): 0 | Plant response rating, Ragweed (ragweed; [4]): 0 | Ragweed plant response rating (0 to 100 scale, 0 is no effect, 100 is complete control) (ragweed; Postemergence, 500 g ai/ha): 30 | Plant response rating, Ragweed (ragweed; [5]): 30 | Plant response rating, Sedge, Umbrella (sedge, umbrella; 500 g ai/ha): 0 | Plant response rating, Blackgrass (blackgrass): 50 | Blackgrass plant response rating (0 to 100 scale, 0 is no effect, 100 is complete control) (blackgrass): 60 | Plant response rating, Pigweed (pigweed; [3]): 20 | Plant response rating, Pigweed (pigweed; [4]): 0 | Pigweed plant response rating (0 to 100 scale, 0 is no effect, 100 is complete control) (pigweed; Postemergence, 500 g ai/ha): 40 | Plant response rating, Pigweed (pigweed; [5]): 40 | Plant response rating, Wheat (wheat): 0 | Wheat plant response rating (0 to 100 scale, 0 is no effect, 100 is complete control) (wheat): 50 | Plant response rating, Ryegrass, Italian (ryegrass, Italian; [3]): 0 | Plant response rating, Ryegrass, Italian (ryegrass, Italian; [4]): 20 | Ryegrass, Italian plant response rating (0 to 100 scale, 0 is no effect, 100 is complete control) (ryegrass, Italian; Postemergence, 500 g ai/ha): 30 | Plant response rating, Ryegrass, Italian (ryegrass, Italian; [5]): 30 | Plant response rating, Barnyardgrass (barnyardgrass [1]; 500 g ai/ha): 70 | Plant response rating, Ducksalad (ducksalad; 500 g ai/ha): 100 | Plant response rating, Corn (corn): 20 | Corn plant response rating (0 to 100 scale, 0 is no effect, 100 is complete control) (corn): 70 | Plant response rating, Galium (galium): 50 | Galium plant response rating (0 to 100 scale, 0 is no effect, 100 is complete control) (galium): 70 | Plant response rating, Barnyardgrass (barnyardgrass [2]; [6]): 90 | Plant response rating, Barnyardgrass (barnyardgrass [2]; [7]): 90 | Barnyardgrass plant response rating (0 to 100 scale, 0 is no effect, 100 is complete control) (barnyardgrass [2]; Postemergence, 500 g ai/ha): 90 | Plant response rating, Barnyardgrass (barnyardgrass [2]; [8]): 90 | Plant response rating, Rice (rice; 500 g ai/ha): 0 | Plant response rating, Kochia (kochia; [3]): 60 | Plant response rating, Kochia (kochia; [4]): 0 | Kochia plant response rating (0 to 100 scale, 0 is no effect, 100 is complete control) (kochia; Postemergence, 500 g ai/ha): 30 | Plant response rating, Kochia (kochia; [5]): 70

CC(C)(C)c1cccc(C2CNC(=O)C2C(=O)Nc2ccccc2C(F)(F)F)c1 (racemic) [Compound 201]
Plant response rating, Foxtail, Giant (giant foxtail; [3]): 20 | Plant response rating, Foxtail, Giant (giant foxtail; [4]): 0 | Foxtail, Giant plant response rating (0 to 100 scale, 0 is no effect, 100 is complete control) (giant foxtail; Postemergence, 500 g ai/ha): 0 | Plant response rating, Foxtail, Giant (giant foxtail; [5]): 30 | Plant response rating, Ragweed (ragweed; [3]): 0 | Plant response rating, Ragweed (ragweed; [4]): 0 | Ragweed plant response rating (0 to 100 scale, 0 is no effect, 100 is complete control) (ragweed; Postemergence, 500 g ai/ha): 0 | Plant response rating, Ragweed (ragweed; [5]): 0 | Plant response rating, Sedge, Umbrella (sedge, umbrella; 1000 g ai/ha): 0 | Plant response rating, Blackgrass (blackgrass): 0 | Blackgrass plant response rating (0 to 100 scale, 0 is no effect, 100 is complete control) (blackgrass): 0 | Plant response rating, Pigweed (pigweed; [3]): 0 | Plant response rating, Pigweed (pigweed; [4]): 0 | Pigweed plant response rating (0 to 100 scale, 0 is no effect, 100 is complete control) (pigweed; Postemergence, 500 g ai/ha): 0 | Plant response rating, Pigweed (pigweed; [5]): 0 | Plant response rating, Wheat (wheat): 0 | Wheat plant response rating (0 to 100 scale, 0 is no effect, 100 is complete control) (wheat): 0 | Plant response rating, Ryegrass, Italian (ryegrass, Italian; [3]): 0 | Plant response rating, Ryegrass, Italian (ryegrass, Italian; [4]): 0 | Ryegrass, Italian plant response rating (0 to 100 scale, 0 is no effect, 100 is complete control) (ryegrass, Italian; Postemergence, 500 g ai/ha): 0 | Plant response rating, Ryegrass, Italian (ryegrass, Italian; [5]): 0 | Plant response rating, Barnyardgrass (barnyardgrass [1]; 1000 g ai/ha): 20 | Plant response rating, Ducksalad (ducksalad; 1000 g ai/ha): 70 | Plant response rating, Corn (corn): 0 | Corn plant response rating (0 to 100 scale, 0 is no effect, 100 is complete control) (corn): 0 | Plant response rating, Galium (galium): 0 | Galium plant response rating (0 to 100 scale, 0 is no effect, 100 is complete control) (galium): 0 | Plant response rating, Barnyardgrass (barnyardgrass [2]; [6]): 0 | Plant response rating, Barnyardgrass (barnyardgrass [2]; [7]): 0 | Barnyardgrass plant response rating (0 to 100 scale, 0 is no effect, 100 is complete control) (barnyardgrass [2]; Postemergence, 500 g ai/ha): 30 | Plant response rating, Barnyardgrass (barnyardgrass [2]; preemergence, 500 g ai/ha, 0 to 100 scale, 0 is no effect and 100 is complete control): 20 | Plant response rating, Rice (rice; 1000 g ai/ha): 0 | Plant response rating, Kochia (kochia; [3]): 0 | Plant response rating, Kochia (kochia; [4]): 0 | Kochia plant response rating (0 to 100 scale, 0 is no effect, 100 is complete control) (kochia; Postemergence, 500 g ai/ha): 0 | Plant response rating, Kochia (kochia; [5]): 0
